In patent US11072584B2, “Carbon monoxide releasing norbornenone compounds” (OTAGO INNOVATION LIMITED, priority 2015, dated 2021):
Values after ≈ are worked out from the molar mass of the structure shown. Structures can show the parent of a compound that is named as a salt. Where two headings read alike, the source gives them in different places.

Assays:
Solubility in water = format: physicochemical; details: for solubility (in words): water or physiological buffers; for solubility: water, 21° C.
MDCK cells = assay: crystal violet cell adhesion (CVCA) cell toxicity assay
[1] = Canis lupus familiaris, MDCK, read-out: EC50 (μM), Active Compound

Row | SMILES | melting point | EC50 (MDCK cells; [1]) | other results
1 | CC12C(=O)C(C)(C(c3ccccc3)=C1c1ccccc1)C1(Br)C(=O)N(CCC(=O)NC(CO)(CO)CO)C(=O)C21 (centres unmarked) [oCOm-24, N-(2-Hydroxy-1,1-bis(hydroxymethyl)ethyl)-3-(3a-bromo-4,7-dimethyl-1,3,8-trioxo-5,6-diphenyl-3a,4,7,7a-tetrahydro-1H-4,7-methanoisoindol-2(2H)-yl)propanamide] | – | > 100 µM | solubility (in words) (Solubility in water): decreased solubility; solubility (Solubility in water): 5000 µg/mL (≈ 8.18 mM)
2 | COC(=O)[C@H](CCCCN1C(=O)C2C3(C)C(=O)C(C)(C(c4ccccc4)=C3c3ccccc3)C2(Br)C1=O)NC(C)=O (stereo partly drawn) [oCOM-41, Methyl (2S)-2-acetamido-6-(3a-bromo-4,7-dimethyl-1,3,8-trioxo-5,6-diphenyl-1,3,3a,4,7,7a-hexahydro-2H-4,7-methanoisoindol-2-yl)hexanoate] | – | > 100 µM | –
3 | CC12C(=O)C(C)(C(c3ccccc3)=C1c1ccccc1)C1(Br)C(=O)N(CCCC[C@H](N)C(=O)O)C(=O)C21 (stereo partly drawn) [oCOm-28, (2S)-2-Amino-6-(3a-bromo-4,7-dimethyl-1,3,8-trioxo-5,6-diphenyl-1,3,3a,4,7,7a-hexahydro-2H-4,7-methanoisoindol-2-yl)hexanoic Acid Trifluoroacetic Acid Salt] | – | > 100 µM | solubility (in words) (Solubility in water): water soluble
4 | COC(=O)[C@@H](N)CCCCN1C(=O)C2C3(C)C(=O)C(C)(C(c4ccccc4)=C3c3ccccc3)C2(Br)C1=O (stereo partly drawn) [oCOm-30, Methyl (2S)-2-amino-6-(3a-bromo-4,7-dimethyl-1,3,8-trioxo-5,6-diphenyl-1,3,3a,4,7,7a-hexahydro-2H-4,7-methanoisoindol-2-yl)hexanoate Trifluoroacetic Acid Salt] | – | > 100 µM | solubility (in words) (Solubility in water): water soluble
5 | CN(C)C(=O)[C@@H](N)CCCCN1C(=O)C2C3(C)C(=O)C(C)(C(c4ccccc4)=C3c3ccccc3)C2(Br)C1=O (stereo partly drawn) [oCOM-36, N,N-Dimethyl (2S)-2-amino-6-(3a-bromo-4,7-dimethyl-1,3,8-trioxo-5,6-diphenyl-1,3,3a,4,7,7a-hexahydro-2H-4,7-methanoisoindol-2-yl)-hexanamide Trifluoroacetic Acid Salt] | – | > 100 µM | –
6 | CC12C(=O)C(C)(C(c3ccccc3)=C1c1ccccc1)C1(Cl)C(=O)N(c3ccccc3)C(=O)C21 (centres unmarked) [oCOm-2, 3a-Chloro-3a,4,7,7a-tetrahydro-4,7-dimethyl-2,5,6-triphenyl-4,7-methano-1H-isoindole-1,3,8(2H)-trione] | 182 to 184 °C | – | –
7 | CC12C(=O)C(C)(C(c3ccccc3)=C1c1ccccc1)C1(Br)C(=O)N(CCCCCC(=O)O)C(=O)C21 (centres unmarked) [oCOM-38, 6-(3a-bromo-4,7-dimethyl-1,3,8-trioxo-5,6-diphenyl-1,3,3a,4,7,7a-hexahydro-2H-4,7-methanoisoindol-2-yl)-hexanoic Acid] | – | > 100 µM | –
8 | CC12C(=O)C(C)(C(c3ccccc3)=C1c1ccccc1)C1(Br)C(=O)N(Cc3cn(CCOC4OC(CO)C(O)C(O)C4O)nn3)C(=O)C21 [oCOm-49, 3a-Bromo-3a,4,7,7a-tetrahydro-4,7-dimethyl-2-[[1-(2-α-D-mannopyranosyloxy)ethyl]-1H-1,2,3-triazol-4yl]methyl-5,6-diphenyl-4,7-methano-1H-isoindole-1,3,8(2H)-trione] | – | > 200 µM | solubility (in words) (Solubility in water): decreased water solubility; solubility (Solubility in water): 900 µg/mL (≈ 1.24 mM)
9 | CC12C(=O)C(C)(C(c3ccccc3)=C1c1ccccc1)C1(S(=O)(=O)c3ccccc3)C(=O)N(c3ccccc3)C(=O)C21 (centres unmarked) [oCOm-6, 3a-Phenylsulfonyl-3a,4,7,7a-tetrahydro-4,7-dimethyl-2,5,6-triphenyl-4,7-methano-1H-isoindole-1,3,8(2H)-trione] | 106 °C | – | –
10 | CC(C)(C)OC(=O)N[C@@H](CCCCN1C(=O)C2C3(C)C(=O)C(C)(C(c4ccccc4)=C3c3ccccc3)C2(Br)C1=O)C(=O)O (stereo partly drawn) [oCOm-27, (2S)-2-tert-butoxycarbonylamino-6-(3a-bromo-4,7-dimethyl-1,3,8-trioxo-5,6-diphenyl-1,3,3a,4,7,7a-hexahydro-2H-4,7-methanoisoindol-2-yl) hexanoic acid] | 87 to 92 °C | – | –
11 | Cc1noc([C@@H](N)CCCCN2C(=O)C3C4(C)C(=O)C(C)(C(c5ccccc5)=C4c4ccccc4)C3(Br)C2=O)n1 (stereo partly drawn) [oCOM-43, (1S)-1-amino-5-(3a-bromo-4,7-dimethyl-1,3,8-trioxo-5,6-diphenyl-1,3,3a,4,7,7a-hexahydro-2H-4,7-methanoisoindol-2-yl)-1-(3-methyl-1,2,4-oxadiazol-5-yl)pentane Trifluoroacetic Acid Salt] | – | > 100 µM | –
12 | CC12C(=O)C(C)(C(c3ccccc3)=C1c1ccccc1)C1(Sc3ccccc3)C(=O)N(c3ccccc3)C(=O)C21 (centres unmarked) [oCOm-4, 3a-Phenylthio-3a,4,7,7a-tetrahydro-4,7-dimethyl-2,5,6-triphenyl-4,7-methano-1H-isoindole-1,3,8(2H)-trione] | 193 °C | – | –
13 | COC(=O)[C@@H](N)CCCN1C(=O)C2C3(C)C(=O)C(C)(C(c4ccccc4)=C3c3ccccc3)C2(Br)C1=O (stereo partly drawn) [oCOm-40, Methyl (2S) 2-amino-5-(3a-bromo-4,7-dimethyl-1,3,8-trioxo-5,6-diphenyl-1,3,3a,4,7,7a-hexahydro-2H-4,7-methanoisoindol-2-yl)-pentanoate Trifluoroacetic Acid Salt] | – | > 100 µM | solubility (in words) (Solubility in water): water soluble
14 | Cc1nnc([C@@H](N)CCCCN2C(=O)C3C4(C)C(=O)C(C)(C(c5ccccc5)=C4c4ccccc4)C3(Br)C2=O)o1 (stereo partly drawn) [oCOM-45, (1S)-1-Amino-5-(3a-bromo-4,7-dimethyl-1,3,8-trioxo-5,6-diphenyl-1,3,3a,4,7,7a-hexahydro-2H-4,7-methanoisoindol-2-yl)-1-(5-methyl-1,3,-oxadiazol-2-yl)pentane Trifluoroacetic Acid Salt] | – | > 100 µM | –
15 | CCOC(=O)[C@@H](N)CCCCN1C(=O)C2C3(C)C(=O)C(C)(C(c4ccccc4)=C3c3ccccc3)C2(Br)C1=O (stereo partly drawn) [oCOm-32, Ethyl (2S)-2-amino-6-(3a-bromo-4,7-dimethyl-1,3,8-trioxo-5,6-diphenyl-1,3,3a,4,7,7a-hexahydro-2H-4,7-methanoisoindol-2-yl)hexanoate Trifluoroacetic Acid Salt] | – | > 100 µM | solubility (in words) (Solubility in water): water soluble
16 | CCCOC(=O)[C@@H](N)CCCCN1C(=O)C2C3(C)C(=O)C(C)(C(c4ccccc4)=C3c3ccccc3)C2(Br)C1=O (stereo partly drawn) [oCOm-34, nPropyl (2S)-2-amino-6-(3a-bromo-4,7-dimethyl-1,3,8-trioxo-5,6-diphenyl-1,3,3a,4,7,7a-hexahydro-2H-4,7-methanoisoindol-2-yl)hexanoate Trifluoroacetic Acid Salt] | – | > 100 µM | solubility (in words) (Solubility in water): water soluble
17 | Cc1c2c(c(C)c(-c3ccccc3)c1-c1ccccc1)C(=O)N(CCN(CCNC(=O)OC(C)(C)C)C(=O)OC(C)(C)C)C2=O [BP-22, Tert-Butyl (3-((tert-butoxycarbonyl)amino)ethyl)(2-(4,7-dimethyl-1,3-dioxo-5,6-diphenylisoindolin-2-yl)ethyl)carbamate] | 202 to 205 °C | – | –
18 | CC12C(=O)C(C)(C(c3ccccc3)=C1c1ccccc1)C1(Br)C(=O)N(c3ccc(O)c([N+](=O)[O-])c3)C(=O)C21 (centres unmarked) [oCOm-11, 3a-Bromo-3a,4,7,7a-tetrahydro-4,7-dimethyl-2-(4-hydroxy-3-nitrophenyl)-5,6-diphenyl-4,7-methano-1H-isoindole-1,3,8(2H)-trione] | 207 °C (dec.) | – | –
19 | Cc1c2c(c(C)c(-c3ccccc3)c1-c1ccccc1)C(=O)N(CCN)C2=O [BP-21, 2-(4,7-Dimethyl-1,3-dioxo-5,6-diphenylisoindolin-2-yl)ethanaminium 2,2,2-trifluoroacetate, reference compound] | – | – | EC50 (MDCK cells; Canis lupus familiaris, MDCK, read-out: EC50 (μM), Inactive Compound): 21 µM
20 | CC(=O)OCCN1C(=O)c2c(C)c(-c3ccccc3)c(-c3ccccc3)c(C)c2C1=O [BP-16, 4,7-Dimethyl-2-(2-acetoxyethyl)-5,6-diphenyl-1H-isoindole-1,3(2H)-dione] | 155 °C | – | –
21 | Cc1c2c(c(C)c(-c3ccccc3)c1-c1ccccc1)C(=O)N(CCNCCN)C2=O [BP-23, 2-(2-(2-Aminoethyl)aminoethyl)-4,7-dimethyl-5,6-diphenyl-1H-isoindole-1,3,8(2H)-diione Bis-trifluoroacetate Salt] | – | – | EC50 (MDCK cells; read-out: EC50 (μM), Inactive Compound, MDCK cells, inactive debromo or CO depleted analogues, 37° C.): > 100 µM
22 | CC12C(=O)C(C)(C(c3ccccc3)=C1c1ccccc1)C1([S+]([O-])c3ccccc3)C(=O)N(c3ccccc3)C(=O)C21 (centres unmarked) [oCOm-5, 3a-Phenylsulfinyl-3a,4,7,7a-tetrahydro-4,7-dimethyl-2,5,6-triphenyl-4,7-methano-1H-isoindole-1,3,8(2H)-trione] | 186 °C | – | –

More lines, main results first:

Row | melting point | SMILES | EC50 (MDCK cells; [1]) | other results
23 | > 250 °C | Cc1c2c(c(C)c(-c3ccccc3)c1-c1ccccc1)C(=O)N(c1ccc(O)c([N+](=O)[O-])c1)C2=O [BP-11, 2-(4-Hydroxy-3-nitrophenyl)-4,7-dimethyl-5,6-diphenyl-1H-isoindole-1,3(2H)-dione] | – | –
24 | 183 to 185 °C | Cc1c2c(c(C)c(-c3ccccc3)c1-c1ccccc1)C(=O)N(CCC(=O)NCCNC(=O)OC(C)(C)C)C2=O [BP-18, Tert-Butyl (2-(3-(4,7-dimethyl-1,3-dioxo-5,6-diphenylisoindolin-2-yl)propanamido)ethyl)carbamate] | – | –
25 | 113 to 115 °C | CC(=O)OC[C@H]1O[C@@H](Oc2ccc(N3C(=O)c4c(C)c(-c5ccccc5)c(-c5ccccc5)c(C)c4C3=O)cc2)[C@H](OC(C)=O)[C@@H](OC(C)=O)[C@@H]1OC(C)=O [BP-14, N-(4-O-(2,3,4,6-tetra-O-acetyl-β-D-glucopyranosyl)phenyl)-3,6-dimethyl-4,5-diphenyl-3,6-phthalimide] | – | –
26 | 181 to 182 °C | Cc1c2c(c(C)c(-c3ccccc3)c1-c1ccccc1)C(=O)N(CCNC(=O)OC(C)(C)C)C2=O [BP-20, Tert-Butyl (2-(4,7-dimethyl-1,3-dioxo-5,6-diphenylisoindolin-2-yl)ethyl)carbamate] | – | –
